Earlier results, collected in patent publication US20110111002A1, “TRANSPORT AND DELIVERY OF GLUTATHIONE INTO HUMAN CELLS USING GOLD NANOPARTICLES” (priority 2009, published 2011).

How the values were obtained:
[1] = test system: intracellular glutathione concentration; details: versus the three component amino acids (precursors)
[2] = humans, injectable
[3] = test system: cell type tested; details: irrespective of the cell type tested

## N[C@@H](CCC(=O)N[C@@H](CS)C(=O)NCC(=O)O)C(=O)O [GSH, L-gammaglutamyl-L-cysteinylglycine]
[1]
  efficiency in raising the intracellular glutathione concentration compared to the precursors: three times more efficient

## O=C([O-])CC([S-])C(=O)[O-].[Au+].[Na+].[Na+] (stereo not drawn) [Myochrisine]
[2]
  tolerance of high concentrations: excellent tolerance

## O=C([O-])CC([S-])C(=O)[O-].[Au+].[Na+].[Na+] (stereo not drawn) [Tauredon]
[3]
  toxicity: comparatively nontoxic
